Experimental data taken from ChEMBL document CHEMBL1129064, “Design and synthesis of 2',3'-dideoxy-2',3'-didehydro-beta-L-cytidine (beta-L-d4C) and 2',3'-dideoxy 2',3'-didehydro-beta-L-5-fluorocytidine (beta-L-Fd4C), two exceptionally potent inhibitors of human hepatitis B virus (HBV) and potent inhibitors of human immunodeficiency virus (HIV) in vitro” (1996).
pEC50: −log10 of the molar value.

Tests used:
Format in all cases: functional
Details in all cases: Homo sapiens, read-out: ED50 (the source's name)
[1] = system: MT2; assay: Concentration required to inhibit 50% of HIV activity in MT-2 cells
[2] = system: HepG2; assay: Concentration required to inhibit 50% of extracellular circular replication of HBV DNA using 2215 cell line
[3] = system: CCRF-CEM; assay: In vitro concentration required to decrease 50% of mitochondrial DNA content in CEM cells
[4] = system: HepG2; assay: Concentration required to inhibit 50% of intracellular circular replication of HBV DNA using 2215 cell line
[5] = system: CCRF-CEM; assay: In vitro concentration required to inhibit 50% of CEM cell growth

pEC50 [1]	pEC50 [2]	pEC50 [3]	pEC50 [4]	pEC50 [5]	Compound
6.15	5.52	5.70		4.66	Nc1ccn([C@@H]2C=C[C@H](CO)O2)c(=O)n1
7.05	8.70	< 4.00	8.70	5.15	Nc1nc(=O)n([C@@H]2C=C[C@H](CO)O2)cc1F [ELVUCITABINE]
5.70	7.77	< 4.30	7.52	4.30	Nc1nc(=O)n([C@@H]2CS[C@H](CO)O2)cc1F [EMTRICITABINE]

Second part, the compound before the results:

Compound	pEC50 [1]	pEC50 [2]	pEC50 [3]	pEC50 [4]	pEC50 [5]
Nc1ccn([C@H]2C=C[C@@H](CO)O2)c(=O)n1	6.00	8.00	< 4.70	8.10	4.70
Nc1ccn([C@@H]2CC[C@H](CO)O2)c(=O)n1	5.82	5.28	7.66	5.21	5.00
Nc1nc(=O)n([C@@H]2CC[C@H](CO)O2)cc1F	6.30	7.26	< 4.00	7.44	4.17
